Data taken from patent publication US11459324B2, “O-glycoprotein-2-acetamido-2-deoxy-3-D-glycopyranosidase inhibitors” (BIOGEN MA INC., priority 2018, dated 2022).

Biological target: T1, Recombinant full length human OGA enzyme (Homo sapiens, UniProt O60502)
T1 construct: Recombinant full length human OGA enzyme was purchased from Origene; purchased Origene
T1 sequence (O60502 1-916): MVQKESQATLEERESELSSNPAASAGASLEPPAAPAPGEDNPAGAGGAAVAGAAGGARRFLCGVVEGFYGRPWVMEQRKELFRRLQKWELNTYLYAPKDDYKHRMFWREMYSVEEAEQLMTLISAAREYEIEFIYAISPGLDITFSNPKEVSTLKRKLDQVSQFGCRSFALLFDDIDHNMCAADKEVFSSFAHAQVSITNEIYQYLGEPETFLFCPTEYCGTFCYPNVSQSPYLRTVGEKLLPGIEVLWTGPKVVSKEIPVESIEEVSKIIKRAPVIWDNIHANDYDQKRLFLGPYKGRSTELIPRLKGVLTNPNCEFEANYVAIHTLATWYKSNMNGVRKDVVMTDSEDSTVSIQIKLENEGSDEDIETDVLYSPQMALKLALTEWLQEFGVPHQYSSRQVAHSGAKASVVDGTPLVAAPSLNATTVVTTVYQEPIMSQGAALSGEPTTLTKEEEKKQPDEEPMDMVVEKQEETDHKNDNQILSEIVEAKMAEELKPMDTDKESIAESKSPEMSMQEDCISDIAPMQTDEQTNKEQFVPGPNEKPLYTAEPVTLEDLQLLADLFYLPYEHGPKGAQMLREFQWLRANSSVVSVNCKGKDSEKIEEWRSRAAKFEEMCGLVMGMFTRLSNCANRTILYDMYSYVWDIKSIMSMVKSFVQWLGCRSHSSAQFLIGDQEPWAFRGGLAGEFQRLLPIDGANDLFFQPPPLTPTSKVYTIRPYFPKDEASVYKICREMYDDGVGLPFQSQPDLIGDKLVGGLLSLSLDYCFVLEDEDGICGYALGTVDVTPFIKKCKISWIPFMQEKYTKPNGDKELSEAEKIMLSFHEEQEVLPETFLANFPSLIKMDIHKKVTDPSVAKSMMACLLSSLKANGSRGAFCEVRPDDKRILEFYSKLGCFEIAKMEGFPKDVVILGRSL
Experiment: OGA Enzyme Inhibition Biochemical Assay
Conditions: 1 nM OGA, 100 μM 4-MUGlcNAc (Km), pH 6.4, 90 minutes at room temperature, 10-point dose-response from 20 μM
Procedure, shortened: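 Full-length human OGA at 1 nM with 100 μM 4-MUGlcNAc (Km) in McIlvaine buffer pH 6.4 plus 0.01% BSA, 90 min at room temperature, then glycine pH 10 quench. Fluorescence read at Ex 355/Em 460 nm. 10-point, 4-fold dose-response from 20 μM, 4-parameter variable-slope fit.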

IC50: 310 nM
SMILES: CC(=O)Nc1ncc(CN2CCCC(Cn3cc(Br)cn3)C2)s1 (stereo not shown) [Example 4-9, N-(5-((3-((4-bromo-1H-pyrazol-1-yl)methyl)piperidin-1-yl)methyl)thiazol-2-yl)acetamide]
